Laboratory results as given in patent US5622947A, “Benzoheterocyclic compounds and vasopressin antagonist and oxytocin antagonist compositions containing a benzoheterocyclic compound” (Otsuka Pharmaceutical Co., Ltd., priority 1992, dated 1997).
Structures can show the parent of a compound that is named as a salt.

Columns and labels:
[1] = target: T1, V1 Recepter (rat liver plasma membrane preparations) (Rattus norvegicus, UniProt P30560); experiment: V1 Recepter binding assay; conditions: [3H]-Arg-vasopressin 2×10^-10 M, 37° C., 10 minutes, pH 8.0, rat liver plasma membrane
T1 construct: rat liver plasma membrane preparations; from tissue; host or cells: rat liver plasma membranes
Protocol: Test-1: V1 Recepter binding assay
By using rat liver plasma membrane preparations prepared according to Ichiraha's method [by Akira Ichihara: J. Bio. Chem., 258, 9283 (1983)], the plasma membrane (50,000 dpm, 2×10^-10 M) of [^3 H]-Arg-vasopressin and a test compound (60 μg, 10^-8 to 10^-4 M) were incubated at 37° C. for 10 minutes in 250 μl (in total volume) of 100 mM Tris-HCl buffer (pH=8.0), containing 5 mM MgCl2, 1 mM EDTA and 0.1% BSA. After the incubation, the mixture was filtered three times by using a glass filter (GF/F) so as to separate the membrane preparation by combining with vasopressin and then washed with the buffer (5 ml). This glass filter was taken out and mixed with a liquid of scintillation cocktail. The amount of [^3 H]-vasopressin combining with the membrane was measured by liquid scintillation counter and the rate of inhibitory effect of the test compound was calculated according to the following equation: […]
C1 : the amount of [^3 H]-vasopressin combining with the membrane in the presence of the test compound of a known amount,
(§1) C0 : the amount of [^3 H]-vasopressin combining with the membrane in the absence of the test compound,
B1 : the amount of [^3 H]-vasopressin combining with the membrane in the presence of the excess amount of vasopressin (10^-6 M).
The results are expressed as IC50 value, which is the concentration of the test compound required to achieve the inhitory effect in the rate of 50% and are shown in the following Table 156.

[2] = target: T2, V2 Recepter (rat kidney plasma membrane preparations) (Rattus norvegicus, UniProt Q00788); experiment: V2 Recepter binding assay; conditions: [3H]-Arg-vasopressin 4×10^-10 M, 4° C., pH 8.0, rat kidney plasma membrane
T2 construct: rat kidney plasma membrane preparations; from tissue; host or cells: rat kidney plasma membranes
Protocol: Test 2: V2 Recepter binding assay
By using rat kidney plasma membrane preparations prepared according to Hechter's method [by O. Hechter: J. Bio. Chem., 2.53, 3211 (1978)], the plasma membrane (100,000 dpm, 4×10^-10 M) of [^3 H]-Arg-vasopressin and a test compound (0.6 mg, 10^-10 to 10^-5 M) were incubated at 4° C. for 3 hours in 250 μl (in total volume) of 100 mM Tris-HCl buffer (pH=8.0), containing, 5 mM MgCl2, 1 mM EDTA and 0.1% BSA. After the incubation, the mixture, the mixture was filtered by using a glass filter (GF/F) so as to separate the membrane preparation combining with vasopressin, then washed twice with the buffer (5 ml). This glass filter was taken out and mixed with liquid scintillation cocktail. The amount of [^3 H]-vasopressin combining with the membrane was measured by a liquid scintillation counter and the rate of inhibitory effect of the test compound was calculated according to the following equation: Rate of the inhibitory
C1 : the amount of [^3 H]-vasopressin combining with the membrane in the presence of the testcompound of a known amount,
as §1
B1 : the amount of [^3 H]-vasopressin combining with the mebrane in the presence of the excess amount of vasopressin (10^-6 M).
The results are expressed as IC50 value, which is the concentration of the test compound required to achieve the inhibitory effect in the rate of 50%, and are shown in the following Table 157.

[3] = target: T3, Oxytocin receptor (uterin muscle membrane preparation) (Rattus norvegicus, UniProt P70536); experiment: Oxytocin receptor binding assay; conditions: [3H]-oxytocin 10^-9 M, 25°, one hour, pH 8.0, uterin muscle membrane, DES-treated
T3 construct: was homogenized, which was used as a membrane; from tissue; host or cells: uterine muscle membranes from diethylstilbestrol-treated animals
T3 sequence (P70536 1-388): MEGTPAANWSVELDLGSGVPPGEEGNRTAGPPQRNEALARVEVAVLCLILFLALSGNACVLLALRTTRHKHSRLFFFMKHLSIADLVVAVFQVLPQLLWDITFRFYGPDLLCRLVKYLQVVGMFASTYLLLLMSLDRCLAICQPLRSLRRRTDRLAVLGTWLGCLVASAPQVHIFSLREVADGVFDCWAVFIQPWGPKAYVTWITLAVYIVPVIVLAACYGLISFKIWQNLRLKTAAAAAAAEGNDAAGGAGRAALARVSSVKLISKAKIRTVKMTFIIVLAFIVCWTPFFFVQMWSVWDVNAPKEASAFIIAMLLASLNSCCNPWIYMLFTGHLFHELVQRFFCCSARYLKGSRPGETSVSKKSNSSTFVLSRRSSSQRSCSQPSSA
Procedure, shortened: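 Rat uterine membranes (0.2 mg; DES-primed day before) incubated 1 h at 25° with [3H]-oxytocin (10^-9 M) and compound (10^-9 to 10^-5 M) in 100 mM Tris-HCl pH 8.0, 5 mM MgCl2, 1 mM EDTA, 0.1% BSA. Filter-bound radioactivity counted; nonspecific with 5×10^-6 M oxytocin; IC50 reported.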

T1 sequence (P30560 whole entry): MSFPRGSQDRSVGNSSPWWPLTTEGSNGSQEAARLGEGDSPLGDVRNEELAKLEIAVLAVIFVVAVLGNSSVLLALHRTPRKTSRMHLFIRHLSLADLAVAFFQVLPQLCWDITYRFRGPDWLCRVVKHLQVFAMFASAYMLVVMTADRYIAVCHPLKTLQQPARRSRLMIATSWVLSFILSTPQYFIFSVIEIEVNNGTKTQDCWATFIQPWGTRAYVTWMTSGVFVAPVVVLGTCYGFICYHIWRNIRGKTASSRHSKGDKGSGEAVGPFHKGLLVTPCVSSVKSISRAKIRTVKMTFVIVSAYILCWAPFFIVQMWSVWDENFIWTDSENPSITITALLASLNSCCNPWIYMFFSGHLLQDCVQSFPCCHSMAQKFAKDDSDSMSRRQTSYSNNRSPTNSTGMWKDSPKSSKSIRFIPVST
T2 sequence (Q00788 whole entry): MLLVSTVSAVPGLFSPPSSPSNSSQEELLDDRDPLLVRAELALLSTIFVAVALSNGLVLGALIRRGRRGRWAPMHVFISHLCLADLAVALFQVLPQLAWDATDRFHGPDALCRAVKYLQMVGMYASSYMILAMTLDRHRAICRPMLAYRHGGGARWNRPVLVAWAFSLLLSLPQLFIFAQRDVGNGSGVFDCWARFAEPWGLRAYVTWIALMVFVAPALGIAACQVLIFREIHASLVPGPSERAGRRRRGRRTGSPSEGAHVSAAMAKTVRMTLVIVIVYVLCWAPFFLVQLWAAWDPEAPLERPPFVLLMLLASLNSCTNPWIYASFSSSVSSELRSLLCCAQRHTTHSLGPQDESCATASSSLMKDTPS

Row | SMILES | IC50 [1] | IC50 [2] | IC50 [3]
1 | COc1cc(NC(=O)c2ccccc2Cl)ccc1C(=O)N1CCCC(OCCNC2CC2)c2cc(Cl)ccc21 (stereo not drawn) [Example 138, 5-(2-Cyclopropylaminoethoxy)-7-chloro-1-[2-methoxy-4-(2-chlorobenzoylamino)benzoyl]-2,3,4,5-tetrahydro-1H-benzoazepine.cndot.hydrochloride] | 5 nM | 3 nM | 233 nM
2 | COc1cc(NC(=O)c2ccccc2Cl)ccc1C(=O)N1CCCC(OCCS(=O)(=O)c2ccncc2)c2cc(Cl)ccc21 (stereo not drawn) [Example 142, 5-[2-(4-Pyridyl)sulfonylethoxy]-7-chloro-1-[2-methoxy-4-(2-chlorobenzoylamino)benzoyl]-2,3,4,5-tetrahydro-1H-benzoazepine] | 98 nM | 38 nM | 1130 nM
3 | COc1cc(NC(=O)c2ccccc2Cl)ccc1C(=O)N1CCCC(CC(=O)NCc2ccccn2)c2cc(Cl)ccc21 (stereo not drawn) [Example 126, 5-(2-Pyridylmethyl)aminocarbonylmethyl-7-chlor-[2-methoxy-4-(2-chlorobenzoylamino)benzoyl]-2,3,4,5-tetrahydro-1H-benzoazepine] | 24 nM | 5 nM | 73 nM
4 | COc1cc(NC(=O)c2ccccc2Cl)ccc1C(=O)N1CCCC(CC(=O)N(C)CCO)c2cc(Cl)ccc21 (stereo not drawn) [Example 88, 5-[N-Methyl-N-(2-hydroxyethyl)amino]-carbonylmethyl-7-chloro-1-[2-methoxy-4-(2-chlorobenzoylamino)benzoyl]-2,3,4,5-tetrahydo-1H-benzoazepine] | 10 nM | 2 nM | 58 nM
5 | COc1cc(NC(=O)c2ccccc2Cl)ccc1C(=O)N1CCCC(CC(=O)NCc2cnc(C)cn2)c2cc(Cl)ccc21 (stereo not drawn) [Example 134, 5-(5-Methyl-2-pyrazinyl)methylaminocarbonylmethyl-7-chloro-1-[2-methoxy-4-(2-chlorobenzoylamino)benzoyl]-2,3,4,5-tetrahydro-1H-benzoazepine] | 12 nM | 4 nM | 96 nM
6 | COc1cc(NC(=O)c2ccccc2Cl)ccc1C(=O)N1CCCC(OCCSc2ccncc2)c2cc(Cl)ccc21 (stereo not drawn) [Example 139, 5-[2-(4-Pyridyl)thioethoxy]-7-chloro-1-[2-methoxy-4-(2-chlorobenzoylamino)benzoyl]-2,3,4,5-tetrahydro-1H-benzoazepine] | 120 nM | 12 nM | 1000 nM
7 | COc1cc(NC(=O)c2ccccc2Cl)ccc1C(=O)N1CCCC(OCCSc2ncc[nH]2)c2cc(Cl)ccc21 (stereo not drawn) [Example 141, 5-[2-(2-Imidazolyl)thioethoxy]-7-chloro-1-[2-methoxy-4-(2-chlorobenzoylamino)benzoyl]-2,3,4,5-tetrahydro-1H-benzoazepine] | 56 nM | 7.6 nM | 193 nM
8 | COc1cc(C(=O)N2CCCC(CC(=O)NCCN3CCOCC3)c3cc(Cl)ccc32)ccc1NC(=O)c1ccccc1Br (stereo not drawn) [Example 164, 5-(2-Morpholinoethyl)aminocarbonylmethyl-7-chlorolo-[3-methoxy-4-(2-bromobenzoylamino)-benzoyl]-2,3,4,5-tetrahydro-1H-benzoazepine] | 2.6 nM | 8.5 nM | 41 nM
9 | COc1cc(NC(=O)c2ccccc2Cl)ccc1C(=O)N1CCCC(CC(=O)N2CCN(CCO)CC2)c2cc(Cl)ccc21 (single isomer, unassigned) [Example 85, 5-[4-(2-Hydroxyethyl)-1-piperazinyl]-carbonylmethyl-7-chloro-1-[2-methoxy-4-(2-chlorobenzoylamino)benzoyl]-2,3,4,5-tetrahydro-1H-benzoazepine] | 16 nM | 8 nM | 94 nM

More lines, now with the values ahead:

Row | IC50 [1] | IC50 [2] | IC50 [3] | SMILES
10 | 5.5 nM | 8.5 nM | 177 nM | COc1cc(C(=O)N2CCCC(OCC(=O)NCCN3CCCCC3)c3cc(Cl)ccc32)ccc1NC(=O)c1ccccc1Br (stereo not drawn) [Example 167, 5-[2-(1-Piperidinyl)ethyl]aminocarbonylmethoxy-7-chloro-1-[3-methoxy-4-(2-bromobenzoylamino)benzoyl]-2,3,4,5-tetrahydro-1H-benzoazepine]
11 | 13 nM | 22 nM | 200 nM | COc1cc(NC(=O)c2ccccc2Cl)ccc1C(=O)N1CCCC(OCC[S+]([O-])c2ccncc2)c2cc(Cl)ccc21 (stereo not drawn) [Example 143, 5-[2-(4-Pyridyl)sulfinylethoxy]-7-chloro-1-[2-methoxy-4-(2-chlorobenzoylamino)benzoyl]-2,3,4,5-tetrahydro-1H-benzoazepine]
12 | 7 nM | 2 nM | 70 nM | COc1cc(NC(=O)c2ccccc2Cl)ccc1C(=O)N1CCCC(CC(=O)N2CCN(CC(O)CNC(C)C)CC2)c2cc(Cl)ccc21 (stereo not drawn) [Example 87, 5-[4-(2-Hydroxy-3-isopropylaminopropyl)-1-piperazinyl]carbonylmethyl-7-chloro-1-[2-methoxy-4-(2-chlorobenzoylamino)benzoyl]-2,3,4,5-tetrahydro-1H-benzoazepine]
13 | 16 nM | 7.3 nM | 47 nM | COc1cc(NC(=O)c2ccccc2Cl)ccc1C(=O)N1CCCC(CC(=O)N2CCN(CC(=O)N3CCCC3)CC2)c2cc(Cl)ccc21 (stereo not drawn) [Example 157, 5-{4-[(1-Pyrrolidynyl)carbonylmethyl]-1-piperazinyl}carbonylmethyl-7-chloro-1-[2-methoxy-4-(2-chlorobenzoylamino)benzoyl]-2,3,4,5-tetrahydro-1H-benzoazepine]
14 | 39 nM | 14 nM | 504 nM | CCOC(=O)N1CCN(CCC2CCCN(C(=O)c3ccc(NC(=O)c4ccccc4Cl)cc3OC)c3ccc(Cl)cc32)CC1 (stereo not drawn) [Example 147, 5-[2-(4-Ethoxycarbonyl-1-piperazinyl)ethyl]-7-chloro-1-[2-methoxy-4-(2-chlorobenzoylamino)-benzoyl]-2,3,4,5-tetrahydro-1H-benzoazepine]
15 | 54 nM | 10 nM | 154 nM | COc1cc(NC(=O)c2ccccc2Cl)ccc1C(=O)N1CCCC(CCN2CCN(S(C)(=O)=O)CC2)c2cc(Cl)ccc21 (stereo not drawn) [Example 146, 5-[2-(4-Methanesulfonyl-1-piperazinyl)ethyl]-7-chloro-1-[2-methoxy-4-(2-chlorobenzoylamino)-benzoyl]-2,3,4,5-tetrahydro-1H-benzoazepine]
16 | 18 nM | 4 nM | 115 nM | COc1cc(NC(=O)c2ccccc2Cl)ccc1C(=O)N1CCCC(CC(=O)NCCc2ccccn2)c2cc(Cl)ccc21 (stereo not drawn) [Example 130, 5-[2-(2-Pyridyl)ethyl]aminocarbonylmethyl-7-chloro-1-[2-methoxy-4-(2-chlorobenzoylamino)benzoyl]-2,3,4,5-tetrahydro-1H-benzoazepine]
